Measured values: patent EP0516034A1, “Pharmaceutical compositions with immunosuppresive properties” (FIDIA S.p.A., priority 1991, dated 1992)

Experiments:
Assay type in all cases: cell-based, human
PBMC [1] = experiment: DNA synthesis ([3H]thymidine incorporation) in PHA-stimulated PBMC; conditions: PBMC cultured 72 hours with PHA 1 µg/ml; for inhibition of DNA synthesis: result in words
Experimental: The PBMCs were obtained by standard density gradient centrifugation of heparinized human venous blood through a Ficoll-Hypaque cushion. The cells were composed of 90% lymphocytes and 10% monocytes as assessed by acridine orange staining.
DNA Synthesis. The cells were re-suspended in RPMI + 5% FCS and spread on 3072 Falcon microtiter plates at a density of 10⁵ cells in 0.2 ml of final volume. They were cultured for 72 hours at 37°C with PHA 1 µg/ml in the presence or absence of phospholipids. The cells were marked with 1 uCi/well of [³H]thymidine for the last 18 hours culture before being collected on filter paper and counted in a scintillation counter.

PBMC [2] = experiment: Trypan blue exclusion test of cell viability; conditions: PHA activated PBMC
Experimental: To exclude cytotoxic effect of used derivatives, cell viability (> 99%) was tested before, during, and after the incubation by the trypan blue exclusion test.

IL-2 receptor = experiment: Flow cytometry of IL-2 receptor expression on PHA-stimulated PBMC; conditions: 72 hours, PHA 1 µg/ml, PS 60 nmol/10⁶ cells; PHA alone 77%
Experimental: (§1) To confirm the DNA synthesis parameter data obtained, a second lymphocyte activity parameter was analysed - the expression of the IL-2 and transferrin receptors on the cell membrane.
(§2) To this purpose, after incubation with PHA 1 µg/ml for 72 hours in the presence or absence of PS, the cells were stained with fluorescent monoclonal antibodies against the above receptor, and then analysed on a FAC Star (Beckton-Dickinson) flow cytometer equipped with an argon ion laser operating at 480 nm and 200 mw.
(§3) 10⁵ PBMC were cultured for 72 hours with PHA 1 µg/ml in the presence or absence of PS 60 nmol/10⁶ cells. Fluorescence intensity (receptor expression) and light diffusion (cell size) were measured using flow cytometry. The data are reported as percentage of cells located in the shown region.

transferrin receptor = experiment: Flow cytometry of transferrin receptor expression on PHA-stimulated PBMC; conditions: 72 hours, PHA 1 µg/ml, PS 60 nmol/10⁶ cells; PHA alone 54%
Experimental: as §1, §2, §3

Compound | inhibition of DNA synthesis (PBMC [1]) | further results
CCCCCCCC/C=C\CCCCCCCC(=O)OC[C@H](COP(=O)(O)OC[C@H](N)C(=O)O)OC(=O)CCCCCCC/C=C\CCCCCCCC [Dioleyl PS, dioleyl-PS] | same activity as PS containing L-serine | 
CCCCCCCCCCCCCCCC(=O)OCC(COC(=O)CCCCCCCCCCCCCCC)OP(=O)(O)OC[C@H](N)C(=O)O [PS-S1, 1,3-dipalmitoylglycero-2-phosphoryl-L-serine, reference compound] | do not inhibit DNA synthesis, but slightly stimulate it | 
CCCCCCCC/C=C\CCCCCCCCOCC(COCCCCCCCC/C=C\CCCCCCCC)OP(=O)(O)OC[C@H](N)C(=O)O [PS-S10, 1,3-dioleylglycero-2-phosphoryl-L-serine] | same activity as PS containing L-serine | 
CCCCCCCCCCCCCC(=O)OC[C@H](COP(=O)(O)OC[C@H](N)C(=O)O)OC(=O)CCCCCCCCCCCCC [dimyristoyl PS, dimyristoyl-PS, reference compound] | do not inhibit DNA synthesis, but slightly stimulate it | 
CCCCCCCCCCCCCCCC(=O)OC[C@H](COP(=O)(O)OC[C@H](N)C(=O)O)OC(=O)CCCCCCCCCCCCCCC [dipalmitoyl PS, dipalmitoyl-PS, reference compound] | do not inhibit DNA synthesis, but slightly stimulate it | 
phosphatidic acid [PA, reference compound] | totally inactive | 
phosphatidylcolin [PC, reference compound] | totally inactive | 
phosphatidylglycerol [PG, reference compound] | totally inactive | 
phosphatidylinositol [PI] | active | 
phosphatidylserine [PS] | marked inhibition | IC50 (PBMC [1]; corresponds to 30 nmol PS/10⁶ cells, read-out: 50% of the maximum effect, concentration of PS in the medium): 15 µM; 50% of the maximum effect (inhibition of DNA synthesis) (PBMC [1]; phospholipid as liposomes): 30 nmol/10⁶ cells; Cell viability (PBMC [2]): not affected; lymphocytes expressing IL-2 receptors (IL-2 receptor): 15%; lymphocytes expressing transferrin receptors (transferrin receptor): 20%
